From the NIST ThermoML archive (doi:10.1021/je8008182)
Numbers after ± are expanded uncertainties.

Experiment: xn = mol fraction of the nth substance listed
Settings: 101 kPa, Liquid; for viscosity: Capillary tube (Ostwald / Ubbelohde) method; for mass density: Pycnometric method

Cc1ccncc1 [4-methylpyridine] + O
Settings	mass density [kg/m3]	viscosity [mPa·s]
298.15 K, x1 = 0.0211	996.2 ± 0.4	1.172 ± 0.01
298.15 K, x1 = 0.0489	993.6 ± 0.5	1.499 ± 0.013
298.15 K, x1 = 0.1143	991.3 ± 0.5	2.141 ± 0.017
298.15 K, x1 = 0.225	984.8 ± 0.8	2.602 ± 0.021
298.15 K, x1 = 0.3111	983 ± 0.6	2.521 ± 0.022
298.15 K, x1 = 0.4	978.9 ± 0.9	2.202 ± 0.021
298.15 K, x1 = 0.5	970.4 ± 1	1.88 ± 0.017
298.15 K, x1 = 0.6353	964.1 ± 0.8	1.539 ± 0.015
298.15 K, x1 = 0.75	961.4 ± 0.8	1.379 ± 0.013
298.15 K, x1 = 0.9	958.7 ± 0.7	1.09 ± 0.0097
298.15 K, x1 = 1	955.4 ± 0.7	0.8723 ± 0.0077
303.15 K, x1 = 0.0211	994.2 ± 0.4	1.037 ± 0.0098
303.15 K, x1 = 0.0489	991.2 ± 0.5	1.325 ± 0.012
303.15 K, x1 = 0.1143	987.9 ± 0.6	1.844 ± 0.018
303.15 K, x1 = 0.225	981.2 ± 0.6	2.238 ± 0.021
303.15 K, x1 = 0.3111	978.7 ± 0.7	2.164 ± 0.02
303.15 K, x1 = 0.4	972.1 ± 0.7	1.904 ± 0.017
303.15 K, x1 = 0.5	965.4 ± 0.5	1.657 ± 0.014
303.15 K, x1 = 0.6353	959.8 ± 0.7	1.381 ± 0.012
303.15 K, x1 = 0.75	956.4 ± 0.8	1.16 ± 0.011
303.15 K, x1 = 0.9	953.8 ± 1	0.9871 ± 0.01
303.15 K, x1 = 1	951.1 ± 1.1	0.8175 ± 0.0073
308.15 K, x1 = 0.0211	992.1 ± 0.5	0.9037 ± 0.0084
308.15 K, x1 = 0.0489	988.3 ± 0.5	1.165 ± 0.011
308.15 K, x1 = 0.1143	984.5 ± 0.6	1.58 ± 0.015
308.15 K, x1 = 0.225	977.6 ± 0.7	1.924 ± 0.018
308.15 K, x1 = 0.3111	974.2 ± 0.7	1.9 ± 0.018
308.15 K, x1 = 0.4	970.7 ± 0.6	1.789 ± 0.015
308.15 K, x1 = 0.5	964.9 ± 0.5	1.595 ± 0.013
308.15 K, x1 = 0.6353	955.3 ± 0.8	1.247 ± 0.011
308.15 K, x1 = 0.75	950.5 ± 0.8	1.068 ± 0.0095
308.15 K, x1 = 0.9	946 ± 0.9	0.7846 ± 0.0083
308.15 K, x1 = 1	941.3 ± 1.1	0.7774 ± 0.0069
313.15 K, x1 = 0.0211	990 ± 0.5	0.8272 ± 0.0074
313.15 K, x1 = 0.0489	986 ± 0.5	1.044 ± 0.0095
313.15 K, x1 = 0.1143	980.9 ± 0.6	1.4 ± 0.013
313.15 K, x1 = 0.225	973.2 ± 0.7	1.682 ± 0.016
313.15 K, x1 = 0.3111	969.5 ± 0.7	1.649 ± 0.016
313.15 K, x1 = 0.4	965.9 ± 0.8	1.561 ± 0.015
313.15 K, x1 = 0.5	960.5 ± 0.7	1.419 ± 0.013
313.15 K, x1 = 0.6353	950.5 ± 0.8	1.129 ± 0.01
313.15 K, x1 = 0.75	945.9 ± 0.7	0.9708 ± 0.0088
313.15 K, x1 = 0.9	941.6 ± 0.7	0.7395 ± 0.0066
313.15 K, x1 = 1	936.6 ± 0.8	0.7368 ± 0.0067
318.15 K, x1 = 0.0211	987.5 ± 0.5	0.7494 ± 0.0069
318.15 K, x1 = 0.0489	983.3 ± 0.6	0.9363 ± 0.0085
318.15 K, x1 = 0.1143	977.1 ± 0.6	1.234 ± 0.011
318.15 K, x1 = 0.225	969 ± 0.7	1.467 ± 0.014
318.15 K, x1 = 0.3111	965 ± 0.7	1.441 ± 0.013
318.15 K, x1 = 0.4	961.2 ± 0.8	1.365 ± 0.013
318.15 K, x1 = 0.5	955.7 ± 0.8	1.263 ± 0.011
318.15 K, x1 = 0.6353	945.9 ± 0.8	1.019 ± 0.009
318.15 K, x1 = 0.75	941.4 ± 0.8	0.8874 ± 0.0081
318.15 K, x1 = 0.9	937 ± 0.8	0.6952 ± 0.0063
318.15 K, x1 = 1	932.1 ± 0.7	0.6855 ± 0.0063
323.15 K, x1 = 0.0211	985 ± 0.5	0.6775 ± 0.0063
323.15 K, x1 = 0.0489	980.3 ± 0.6	0.8486 ± 0.0078
323.15 K, x1 = 0.1143	973.4 ± 0.7	1.099 ± 0.01
323.15 K, x1 = 0.225	964.8 ± 0.7	1.304 ± 0.012
323.15 K, x1 = 0.3111	960.7 ± 0.7	1.279 ± 0.012
323.15 K, x1 = 0.4	956.5 ± 0.8	1.207 ± 0.011
323.15 K, x1 = 0.5	951 ± 0.8	1.136 ± 0.01
323.15 K, x1 = 0.6353	941.4 ± 0.8	0.9623 ± 0.0085
323.15 K, x1 = 0.75	936.7 ± 0.8	0.8112 ± 0.0074
323.15 K, x1 = 0.9	932.5 ± 0.8	0.6516 ± 0.006
323.15 K, x1 = 1	927.7 ± 0.8	0.6505 ± 0.0061
328.15 K, x1 = 0.0211	983 ± 0.6	0.6136 ± 0.0058
328.15 K, x1 = 0.0489	977.3 ± 0.6	0.762 ± 0.0074
328.15 K, x1 = 0.1143	969.5 ± 0.7	0.9781 ± 0.0088
328.15 K, x1 = 0.225	960.4 ± 0.7	1.147 ± 0.01
328.15 K, x1 = 0.3111	956 ± 0.8	1.119 ± 0.01
328.15 K, x1 = 0.4	952 ± 0.8	1.069 ± 0.0098
328.15 K, x1 = 0.5	946.3 ± 0.8	1.007 ± 0.0092
328.15 K, x1 = 0.6353	936.7 ± 0.8	0.8648 ± 0.0083
328.15 K, x1 = 0.75	932.1 ± 0.8	0.7423 ± 0.0068
328.15 K, x1 = 0.9	927.8 ± 0.8	0.6014 ± 0.0058
328.15 K, x1 = 1	923.2 ± 0.8	0.5905 ± 0.0058
333.15 K, x1 = 0.0211	979.3 ± 0.6	0.5649 ± 0.0052
333.15 K, x1 = 0.0489	974.1 ± 0.6	0.6555 ± 0.0063
333.15 K, x1 = 0.1143	965.8 ± 0.7	0.8941 ± 0.0081
333.15 K, x1 = 0.225	956.4 ± 0.7	1.037 ± 0.0092
333.15 K, x1 = 0.3111	951.4 ± 0.8	1.008 ± 0.0091
333.15 K, x1 = 0.4	947.5 ± 0.8	0.9636 ± 0.0088
333.15 K, x1 = 0.5	941.6 ± 0.8	0.9199 ± 0.0083
333.15 K, x1 = 0.6353	931.9 ± 0.8	0.7522 ± 0.0072
333.15 K, x1 = 0.75	927.3 ± 0.8	0.6899 ± 0.0063
333.15 K, x1 = 0.9	923 ± 0.8	0.5378 ± 0.0053
333.15 K, x1 = 1	918.5 ± 0.8	0.5329 ± 0.0054
338.15 K, x1 = 0.0211	976.3 ± 0.6	0.5403 ± 0.0051
338.15 K, x1 = 0.0489	970.8 ± 0.6	0.6149 ± 0.0055
338.15 K, x1 = 0.1143	961.7 ± 0.6	0.8036 ± 0.0085
338.15 K, x1 = 0.225	952.2 ± 0.6	0.9466 ± 0.0096
338.15 K, x1 = 0.3111	946.9 ± 0.7	0.9064 ± 0.0084
338.15 K, x1 = 0.4	942.8 ± 0.8	0.8656 ± 0.008
338.15 K, x1 = 0.5	936.7 ± 0.9	0.8403 ± 0.0083
338.15 K, x1 = 0.6353	927.5 ± 0.6	0.6948 ± 0.0061
338.15 K, x1 = 0.75	922.6 ± 0.7	0.641 ± 0.0063
338.15 K, x1 = 0.9	918.5 ± 0.9	0.4964 ± 0.0046
338.15 K, x1 = 1	914 ± 0.8	0.4815 ± 0.005
